Test results taken from US10801077B2, “Influenza A virus variants” (Vertex Pharmaceuticals Incorporated, priority 2014, dated 2020).
pEC50: −log10 of the molar value.

Columns and labels:
PR8-PB2-F325V = type: cell-based, influenza A virus
[1] = tested on: A/Puerto Rico/8/34, A/California/07/2009, A/Wisconsin/67/2005 influenza virus variants; type: cell-based
PR8-PB2-F323L = type: cell-based, influenza A virus
PR8-PB2-K376Q = type: cell-based, influenza A virus
PR8-PB2-S324N = type: cell-based, influenza A virus
PR8-PB2-H357Q = type: cell-based, influenza A virus
PR8-PB2-K376R = type: cell-based, influenza A virus
PR8-PB2-M431I = type: cell-based, influenza A virus
PR8-Wild Type = assay: microbe, parasite or virus in culture; type: cell-based, influenza A virus
PR8-PB2-S324R = type: cell-based, influenza A virus

Question: Which results are given for CC(C)(C)[C@@H](CC(=O)O)Nc1nc(-c2c[nH]c3ncc(F)cc23)ncc1F [Compound 1]?
Answer: Sensitivity to Compound 1 Fold EC50 Shift (PR8-PB2-F325V): 3.5 fold; reduction in sensitivity to Compound 1 [1]: > 10 fold; shift in Compound 1 EC50 [1]: 10- to 1720 fold; shifts in sensitivity to Compound 1 [1]: greater than 10 fold; Sensitivity to Compound 1 Fold EC50 Shift (PR8-PB2-F323L): 8.5 fold; Sensitivity to Compound 1 Fold EC50 Shift (PR8-PB2-K376Q): 408 fold; Sensitivity to Compound 1 Fold EC50 Shift (PR8-PB2-S324N): 31 fold; Sensitivity to Compound 1 Fold EC50 Shift (PR8-PB2-H357Q): 15 fold; Sensitivity to Compound 1 Fold EC50 Shift (PR8-PB2-K376R): 231 fold; Sensitivity to Compound 1 Fold EC50 Shift (PR8-PB2-M431I): 131 fold; Sensitivity to Compound 1 Fold EC50 Shift (PR8-Wild Type): 1.0 fold; pEC50 (PR8-Wild Type; Influenza A virus, PR8, MDCK, read-out: Sensitivity to Compound 1 EC50 (SD)): 8.89; Sensitivity to Compound 1 Fold EC50 Shift (PR8-PB2-S324R): 33 fold
